In patent publication US12692274B2, “Tetrahydroisoquinoline derivatives for the treatment of red blood disorders and inflammatory diseases” (Sanofi, priority 2020, dated 2026):
Several values for one entry are separate records, joined by “and”; a condition that tells them apart may be missing. Equal entries are not always repeated.

Biological target: HIS-Keap1 full length / Biotin-Nrf2 (16-mer) (Homo sapiens, UniProt Q14145)
Test: biochemical
Details: not given

Chain of HIS-Keap1 full length / Biotin-Nrf2 (16-mer) (Q14145 whole entry): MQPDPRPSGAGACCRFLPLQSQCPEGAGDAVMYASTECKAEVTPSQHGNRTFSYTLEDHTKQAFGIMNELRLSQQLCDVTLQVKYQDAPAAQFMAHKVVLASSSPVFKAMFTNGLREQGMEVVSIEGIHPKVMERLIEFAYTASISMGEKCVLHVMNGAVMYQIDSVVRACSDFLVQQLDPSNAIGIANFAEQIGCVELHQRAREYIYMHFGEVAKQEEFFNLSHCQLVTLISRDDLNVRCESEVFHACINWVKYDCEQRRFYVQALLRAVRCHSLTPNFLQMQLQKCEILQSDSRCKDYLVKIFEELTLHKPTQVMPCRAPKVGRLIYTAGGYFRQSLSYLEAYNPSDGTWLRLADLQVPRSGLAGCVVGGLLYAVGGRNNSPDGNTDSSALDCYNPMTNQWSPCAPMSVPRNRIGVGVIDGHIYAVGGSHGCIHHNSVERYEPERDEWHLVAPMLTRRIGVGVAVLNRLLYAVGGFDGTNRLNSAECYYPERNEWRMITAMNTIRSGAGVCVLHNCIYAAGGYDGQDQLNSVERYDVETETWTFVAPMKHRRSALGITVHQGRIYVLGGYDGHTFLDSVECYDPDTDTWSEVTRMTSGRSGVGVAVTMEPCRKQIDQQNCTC

SMILES	IC50
Cc1cc2ccc1C(=O)N1CCc3ccc(cc3C1)[C@H](CC(=O)O)c1cnc(cc1C)OCCCCC2 [Compound 99]	8.8 nM and 8.4 nM
Cc1cc2ccc1C(=O)N1CCc3ccc(cc3C1)[C@@H](CC(=O)O)c1cnc(cc1C)OCCCCC2 [Compound 100]	1.1 nM and 1 nM
COc1cc2ccc1CCCCCCn1nnc3c(C)c(ccc31)[C@@H](CC(=O)O)c1ccc3c(c1)CN(CC3)C2=O [Compound 101]	2.6 nM and 2.8 nM
COc1cc2ccc1CCCCCCn1nnc3c(C)c(ccc31)[C@H](CC(=O)O)c1ccc3c(c1)CN(CC3)C2=O [Compound 102]	4.5 nM and 4.2 nM
COc1cc2ccc1CCCCCCn1nnc3c(C)c(cnc31)C(CC(=O)O)c1ccc3c(c1)CN(CC3)C2=O (centres unmarked) [Compound 104]	0.2 nM and 0.3 nM and 1.7 nM and 1.6 nM
Cc1cc2cc3c1CCN(C3)C(=O)c1ccc(cc1)CCCCCn1nnc3c(C)c(cnc31)C2CC(=O)O (centres unmarked) [Compound 105]	0.8 nM
Cc1cc2cc3c1CCN(C3)C(=O)c1ccc(cc1)CCCCCCn1nnc3c(C)c(cnc31)C2CC(=O)O (centres unmarked) [Compound 106]	0.9 nM and 0.7 nM
Cc1c2ccc3c1nnn3CCCCCc1cnc3c(c1)cc(n3C)C(=O)N1CCc3ccc(cc3C1)[C@H]2CC(=O)O [Compound 111]	0.4 nM and 0.2 nM

Test system: NQO1 activation in BEAS-2B cells
Test: BEAS-2B cellular MTT assay of NQO1 activation, 0% HSA
Type: cell-based
Details: Homo sapiens, Serum Free W, read-out: BEAS EC50 (nM) Serum Free W
Outline: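 For the 0% HSA condition, cells were seeded into collagen plates in HSA-free medium. Culture was BEAS-2B in BEBM plus BEGM SingleQuots lacking GA-1000, held under 70% confluence, at a seeding density reaching 95-100% confluence by 48 h.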

SMILES	EC50 [nM]
Cc1cc2ccc1C(=O)N1CCc3ccc(cc3C1)[C@H](CC(=O)O)c1cnc(cc1C)OCCCCC2 [Compound 99]	23.9
Cc1cc2ccc1C(=O)N1CCc3ccc(cc3C1)[C@@H](CC(=O)O)c1cnc(cc1C)OCCCCC2 [Compound 100]	1.7
COc1cc2ccc1CCCCCCn1nnc3c(C)c(ccc31)[C@@H](CC(=O)O)c1ccc3c(c1)CN(CC3)C2=O [Compound 101]	4.7
COc1cc2ccc1CCCCCCn1nnc3c(C)c(ccc31)[C@H](CC(=O)O)c1ccc3c(c1)CN(CC3)C2=O [Compound 102]	25.1
COc1cc2ccc1CCCCCCn1nnc3c(C)c(cnc31)C(CC(=O)O)c1ccc3c(c1)CN(CC3)C2=O (centres unmarked) [Compound 104]	30
Cc1cc2cc3c1CCN(C3)C(=O)c1ccc(cc1)CCCCCn1nnc3c(C)c(cnc31)C2CC(=O)O (centres unmarked) [Compound 105]	3.9
Cc1cc2cc3c1CCN(C3)C(=O)c1ccc(cc1)CCCCCCn1nnc3c(C)c(cnc31)C2CC(=O)O (centres unmarked) [Compound 106]	4.5
Cc1c2ccc3c1nnn3CCCCCc1cnc3c(c1)cc(n3C)C(=O)N1CCc3ccc(cc3C1)[C@H]2CC(=O)O [Compound 111]	19

Same assay, conditions: Homo sapiens, serum free, read-out: BEAS EC50 (nM) serum free

SMILES	EC50 [nM]
COc1cc2ccc1CCCCCCn1nnc3c(C)c(cnc31)C(CC(=O)O)c1ccc3c(c1)CN(CC3)C2=O (centres unmarked) [Compound 104]	9.3

Same assay, conditions: Serum Free W, read-out: BEAS EC50 (nM) Serum Free W

SMILES	EC50 [nM]
Cc1cc2ccc1C(=O)N1CCc3ccc(cc3C1)[C@H](CC(=O)O)c1cnc(cc1C)OCCCCC2 [Compound 99]	25.6
Cc1cc2ccc1C(=O)N1CCc3ccc(cc3C1)[C@@H](CC(=O)O)c1cnc(cc1C)OCCCCC2 [Compound 100]	1.6
COc1cc2ccc1CCCCCCn1nnc3c(C)c(ccc31)[C@@H](CC(=O)O)c1ccc3c(c1)CN(CC3)C2=O [Compound 101]	5.1
COc1cc2ccc1CCCCCCn1nnc3c(C)c(ccc31)[C@H](CC(=O)O)c1ccc3c(c1)CN(CC3)C2=O [Compound 102]	24.6
COc1cc2ccc1CCCCCCn1nnc3c(C)c(cnc31)C(CC(=O)O)c1ccc3c(c1)CN(CC3)C2=O (centres unmarked) [Compound 104]	36.5
Cc1cc2cc3c1CCN(C3)C(=O)c1ccc(cc1)CCCCCn1nnc3c(C)c(cnc31)C2CC(=O)O (centres unmarked) [Compound 105]	4.2
Cc1cc2cc3c1CCN(C3)C(=O)c1ccc(cc1)CCCCCCn1nnc3c(C)c(cnc31)C2CC(=O)O (centres unmarked) [Compound 106]	5.6
Cc1c2ccc3c1nnn3CCCCCc1cnc3c(c1)cc(n3C)C(=O)N1CCc3ccc(cc3C1)[C@H]2CC(=O)O [Compound 111]	19.5

Same assay, conditions: serum free, read-out: BEAS EC50 (nM) serum free

SMILES	EC50 [nM]
COc1cc2ccc1CCCCCCn1nnc3c(C)c(cnc31)C(CC(=O)O)c1ccc3c(c1)CN(CC3)C2=O (centres unmarked) [Compound 104]	7.4

Test system: NQO1 activation in BEAS-2B cells
Test: BEAS-2B cellular MTT assay of NQO1 activation, 0.3% HSA
Type: cell-based
Details: BEAS+ W, read-out: BEAS+ W EC50
Outline: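 MTT read-out in BEAS-2B cells grown in BEBM with SingleQuots, no GA-1000, kept below 70% confluence; plates coated with collagen, with 0.3% or 0% HSA medium, seeded to 95-100% confluency at 48 h, 37 °C, 5% CO2.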

SMILES	EC50 [nM]
Cc1cc2ccc1C(=O)N1CCc3ccc(cc3C1)[C@H](CC(=O)O)c1cnc(cc1C)OCCCCC2 [Compound 99]	79
Cc1cc2ccc1C(=O)N1CCc3ccc(cc3C1)[C@@H](CC(=O)O)c1cnc(cc1C)OCCCCC2 [Compound 100]	9.1
COc1cc2ccc1CCCCCCn1nnc3c(C)c(ccc31)[C@@H](CC(=O)O)c1ccc3c(c1)CN(CC3)C2=O [Compound 101]	31
COc1cc2ccc1CCCCCCn1nnc3c(C)c(ccc31)[C@H](CC(=O)O)c1ccc3c(c1)CN(CC3)C2=O [Compound 102]	104
COc1cc2ccc1CCCCCCn1nnc3c(C)c(cnc31)C(CC(=O)O)c1ccc3c(c1)CN(CC3)C2=O (centres unmarked) [Compound 104]	130
Cc1cc2cc3c1CCN(C3)C(=O)c1ccc(cc1)CCCCCn1nnc3c(C)c(cnc31)C2CC(=O)O (centres unmarked) [Compound 105]	9.1
Cc1cc2cc3c1CCN(C3)C(=O)c1ccc(cc1)CCCCCCn1nnc3c(C)c(cnc31)C2CC(=O)O (centres unmarked) [Compound 106]	44.8
Cc1c2ccc3c1nnn3CCCCCc1cnc3c(c1)cc(n3C)C(=O)N1CCc3ccc(cc3C1)[C@H]2CC(=O)O [Compound 111]	101

Same assay, conditions: BEAS+, read-out: BEAS+ EC50

SMILES	EC50 [nM]
COc1cc2ccc1CCCCCCn1nnc3c(C)c(cnc31)C(CC(=O)O)c1ccc3c(c1)CN(CC3)C2=O (centres unmarked) [Compound 104]	19.2

Same assay, conditions: Homo sapiens, BEAS+ W, read-out: BEAS+ W EC50

SMILES	EC50 [nM]
Cc1cc2ccc1C(=O)N1CCc3ccc(cc3C1)[C@H](CC(=O)O)c1cnc(cc1C)OCCCCC2 [Compound 99]	108
Cc1cc2ccc1C(=O)N1CCc3ccc(cc3C1)[C@@H](CC(=O)O)c1cnc(cc1C)OCCCCC2 [Compound 100]	8
COc1cc2ccc1CCCCCCn1nnc3c(C)c(ccc31)[C@@H](CC(=O)O)c1ccc3c(c1)CN(CC3)C2=O [Compound 101]	34.9
COc1cc2ccc1CCCCCCn1nnc3c(C)c(ccc31)[C@H](CC(=O)O)c1ccc3c(c1)CN(CC3)C2=O [Compound 102]	117
COc1cc2ccc1CCCCCCn1nnc3c(C)c(cnc31)C(CC(=O)O)c1ccc3c(c1)CN(CC3)C2=O (centres unmarked) [Compound 104]	147
Cc1cc2cc3c1CCN(C3)C(=O)c1ccc(cc1)CCCCCn1nnc3c(C)c(cnc31)C2CC(=O)O (centres unmarked) [Compound 105]	11.6
Cc1cc2cc3c1CCN(C3)C(=O)c1ccc(cc1)CCCCCCn1nnc3c(C)c(cnc31)C2CC(=O)O (centres unmarked) [Compound 106]	35.5
Cc1c2ccc3c1nnn3CCCCCc1cnc3c(c1)cc(n3C)C(=O)N1CCc3ccc(cc3C1)[C@H]2CC(=O)O [Compound 111]	122

Same assay, conditions: Homo sapiens, BEAS+, read-out: BEAS+ EC50

SMILES	EC50 [nM]
COc1cc2ccc1CCCCCCn1nnc3c(C)c(cnc31)C(CC(=O)O)c1ccc3c(c1)CN(CC3)C2=O (centres unmarked) [Compound 104]	16.4
